Source: EP1247803A2, “Indolinone compounds suitable for modulation of protein kinases” (Sugen, Inc., priority 1996, dated 1998)

Legend:
[1] = target: PDGF-R (Homo sapiens, UniProt P09619); assay: PDGF-R ELISA; type: cell-based
Text: A PDGF-R ELISA is described in International Patent Publication No. WO 96/40116, published December 19, 1996 by Tang et al.

[2] = target: T1, FLK-1 receptor (Mus musculus, UniProt P35918); assay: FLK-1 ELISA (kinase activity of the FLK-1 receptor in FLK-1/NIH3T3 cells, VEGF stimulated); type: cell-based
T1 construct: expressed in transfected cells; host or cells: NIH3T3 C7#3
How it was run: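 An ELISA using affinity-purified rabbit anti-FLK-1 antiserum on anti-rabbit IgG-coated plates measured VEGF-stimulated FLK-1 kinase activity. NIH3T3 C7#3 cells carrying FLK-1 were serum-starved (0.1% FBS) overnight, then exposed to compound (final 1:200 dilution, 0.5% DMSO) for two hours at 37 °C.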

Sequence of PDGF-R (P09619 33-1106, species assumed): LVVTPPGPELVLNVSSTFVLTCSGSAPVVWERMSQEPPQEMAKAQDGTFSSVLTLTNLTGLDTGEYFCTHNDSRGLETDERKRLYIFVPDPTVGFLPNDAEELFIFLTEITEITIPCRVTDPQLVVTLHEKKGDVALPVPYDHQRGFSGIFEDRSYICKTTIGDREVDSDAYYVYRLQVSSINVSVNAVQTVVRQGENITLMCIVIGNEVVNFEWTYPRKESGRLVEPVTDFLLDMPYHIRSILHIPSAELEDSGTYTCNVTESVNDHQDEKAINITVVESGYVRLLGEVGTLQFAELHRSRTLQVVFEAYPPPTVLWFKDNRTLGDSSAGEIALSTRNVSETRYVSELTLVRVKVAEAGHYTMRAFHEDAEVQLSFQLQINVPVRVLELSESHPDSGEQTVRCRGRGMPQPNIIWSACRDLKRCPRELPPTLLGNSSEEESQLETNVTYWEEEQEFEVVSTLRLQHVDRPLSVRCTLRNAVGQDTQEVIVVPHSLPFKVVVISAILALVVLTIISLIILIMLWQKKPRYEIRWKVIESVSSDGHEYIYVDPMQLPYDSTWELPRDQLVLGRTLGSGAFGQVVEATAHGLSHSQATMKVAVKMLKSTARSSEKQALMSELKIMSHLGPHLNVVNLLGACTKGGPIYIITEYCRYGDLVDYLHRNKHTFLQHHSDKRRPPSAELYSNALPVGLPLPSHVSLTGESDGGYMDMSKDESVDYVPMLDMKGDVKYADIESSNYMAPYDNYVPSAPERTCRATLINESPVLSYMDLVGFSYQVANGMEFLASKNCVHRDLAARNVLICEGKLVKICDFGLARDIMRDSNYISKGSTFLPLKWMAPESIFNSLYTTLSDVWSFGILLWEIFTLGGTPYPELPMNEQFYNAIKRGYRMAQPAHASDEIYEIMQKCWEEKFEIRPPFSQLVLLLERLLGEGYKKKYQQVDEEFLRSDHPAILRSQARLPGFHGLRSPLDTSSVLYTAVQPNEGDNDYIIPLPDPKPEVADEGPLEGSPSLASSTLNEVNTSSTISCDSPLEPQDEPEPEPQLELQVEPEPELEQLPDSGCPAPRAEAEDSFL
T1 sequence (P35918 20-1345): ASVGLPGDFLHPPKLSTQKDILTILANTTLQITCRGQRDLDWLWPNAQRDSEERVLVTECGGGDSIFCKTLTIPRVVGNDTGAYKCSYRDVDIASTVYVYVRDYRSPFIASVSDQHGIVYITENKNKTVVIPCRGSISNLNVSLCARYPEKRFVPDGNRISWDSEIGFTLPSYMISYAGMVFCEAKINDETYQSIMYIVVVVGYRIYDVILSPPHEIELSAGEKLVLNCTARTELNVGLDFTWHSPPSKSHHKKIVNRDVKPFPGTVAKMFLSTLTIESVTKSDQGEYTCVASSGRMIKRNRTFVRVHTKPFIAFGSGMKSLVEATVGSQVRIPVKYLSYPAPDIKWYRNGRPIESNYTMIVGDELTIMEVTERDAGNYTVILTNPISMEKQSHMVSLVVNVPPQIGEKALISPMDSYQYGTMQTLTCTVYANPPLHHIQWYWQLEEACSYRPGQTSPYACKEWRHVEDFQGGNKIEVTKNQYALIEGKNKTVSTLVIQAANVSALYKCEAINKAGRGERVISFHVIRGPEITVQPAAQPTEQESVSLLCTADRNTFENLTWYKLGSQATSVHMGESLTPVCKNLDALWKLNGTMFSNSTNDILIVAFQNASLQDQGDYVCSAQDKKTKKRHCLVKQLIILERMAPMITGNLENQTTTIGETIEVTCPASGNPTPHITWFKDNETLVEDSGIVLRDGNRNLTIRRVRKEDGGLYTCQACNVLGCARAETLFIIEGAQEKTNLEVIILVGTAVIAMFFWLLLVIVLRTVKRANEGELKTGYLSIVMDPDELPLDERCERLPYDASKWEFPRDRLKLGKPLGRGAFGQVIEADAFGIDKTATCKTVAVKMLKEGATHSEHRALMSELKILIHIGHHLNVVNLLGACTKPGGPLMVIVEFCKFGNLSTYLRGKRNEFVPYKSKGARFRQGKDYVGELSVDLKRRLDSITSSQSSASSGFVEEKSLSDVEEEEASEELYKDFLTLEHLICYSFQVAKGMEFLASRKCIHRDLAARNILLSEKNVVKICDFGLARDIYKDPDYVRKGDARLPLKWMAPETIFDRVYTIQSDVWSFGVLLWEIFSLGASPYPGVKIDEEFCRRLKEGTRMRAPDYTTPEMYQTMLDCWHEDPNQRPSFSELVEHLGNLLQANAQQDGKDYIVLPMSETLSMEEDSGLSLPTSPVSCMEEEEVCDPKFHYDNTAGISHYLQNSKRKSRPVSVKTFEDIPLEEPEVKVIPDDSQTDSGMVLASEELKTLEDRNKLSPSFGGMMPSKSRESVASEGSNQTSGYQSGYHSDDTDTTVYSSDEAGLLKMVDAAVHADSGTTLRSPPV

Structure (SMILES) | PDGF Kinase %Inhibition [1] [%] | Fik Kinase %Inhibition [2] [%]
O=C1Nc2c(Br)cc(Br)cc2C1=Cc1cccc(F)c1O [10734/A08] | 9.1 | 0.1
O=C1Nc2ccc(S(=O)(=O)N3CCOCC3)cc2C1=Cc1cc([N+](=O)[O-])ccc1O [10733/F10] | -5.6 | 8.5
COc1c(C)cc(C=C2C(=O)Nc3ccc(S(=O)(=O)N4CCOCC4)cc32)cc1C [10733/F06] | -4.8 | 19.3
O=C1Nc2ccc(S(=O)(=O)Nc3ccc(C(F)(F)F)cc3)cc2C1=Cc1cc([N+](=O)[O-])ccc1O [10733/E10] | 10.3 | 5.5
COc1c([N+](=O)[O-])cc(C=C2C(=O)Nc3ccc(S(=O)(=O)N4CCOCC4)cc32)cc1C(C)(C)C [10733/F03] | 24.5 | 17.5
O=C1Nc2ccc(I)cc2C1=Cc1ccc([N+](=O)[O-])cc1 [10734/B06] | 0.2 | -0.9
CCOc1cccc(C=C2C(=O)Nc3ccc(Br)c(C)c32)c1O [10734/C02] | 36.0 | -3.9
O=C1Nc2ccc(I)cc2C1=Cc1cc(Cl)cc(Cl)c1O [10734/B03] | 13.0 | 21.7
O=C1Nc2ccc(S(=O)(=O)Nc3ccc(C(F)(F)F)cc3)cc2C1=Cc1cc(Br)ccc1O [10733/E09] | 35.8 | 13.4
O=C1Nc2ccc(CCCl)cc2C1=Cc1cc([N+](=O)[O-])ccc1O [10733/G10] | -58.0 | 12.7
COc1c(C)cc(C=C2C(=O)Nc3ccc(S(=O)(=O)Nc4ccc(C(F)(F)F)cc4)cc32)cc1C [10733/E06] | 22.4 | 13.5
COc1c(C)cc(C=C2C(=O)Nc3ccc(CCCl)cc32)cc1C [10733/G06] | 0.1 | 37.0
CCOc1cccc(C=C2C(=O)Nc3c(Br)cc(Br)cc32)c1O [10734/A02] | -3.8 | 4.1
O=C1Nc2ccc(I)cc2C1=Cc1ccc(O)c(Br)c1 [10734/B09] | 12.6 | -32.3
Cc1c(Br)ccc2c1C(=Cc1cc(Cl)cc(Cl)c1O)C(=O)N2 [10734/C03] | 24.5 | -5.6
CNS(=O)(=O)c1ccc2c(c1)C(=Cc1cc(Cl)cc(Cl)c1O)C(=O)N2 [10734/D03] | 24.1 | 17.4
CC(C)(C)c1cc(C=C2C(=O)Nc3ccc(CCCl)cc32)cc(I)c1OCc1ccccc1 [10733/G02] | -7.6 | 8.3
COc1c([N+](=O)[O-])cc(C=C2C(=O)Nc3ccc(CCCl)cc32)cc1C(C)(C)C [10733/G03] | 12.7 | 24.7
COc1c(C(C)(C)C)cc(C=C2C(=O)Nc3ccc(S(=O)(=O)N4CCOCC4)cc32)cc1C(C)(C)C [10733/F04] | -28.7 | 21.4
CC(C)(C)c1ccc(C=C2C(=O)Nc3ccc(I)cc32)cc1 [10734/B10] | 7.7 | 15.7
O=C1Nc2c(Br)cc(Br)cc2C1=Cc1ccc([N+](=O)[O-])cc1 [10734/A06] | -9.9 | -6.4
